Values of other authors in US12285413B2 (priority 2020, dated 2025).

Experiments:
[1] = target: glucocorticoid receptor (Homo sapiens, UniProt P04150); settings: relative to cortisol
[2] = tested on: MERS-CoV; settings: multiple in vitro systems, including primary human airway epithelial cell cultures
[3] = tested on: SARS-CoV; settings: multiple in vitro systems, including primary human airway epithelial cell cultures
[4] = tested on: SARS-CoV-2
[5] = tested on: SARS-CoV; settings: mouse, prophylactic and early therapeutic administration
[6] = tested on: coronavirus

glucocorticoid receptor, sequence (P04150 whole entry): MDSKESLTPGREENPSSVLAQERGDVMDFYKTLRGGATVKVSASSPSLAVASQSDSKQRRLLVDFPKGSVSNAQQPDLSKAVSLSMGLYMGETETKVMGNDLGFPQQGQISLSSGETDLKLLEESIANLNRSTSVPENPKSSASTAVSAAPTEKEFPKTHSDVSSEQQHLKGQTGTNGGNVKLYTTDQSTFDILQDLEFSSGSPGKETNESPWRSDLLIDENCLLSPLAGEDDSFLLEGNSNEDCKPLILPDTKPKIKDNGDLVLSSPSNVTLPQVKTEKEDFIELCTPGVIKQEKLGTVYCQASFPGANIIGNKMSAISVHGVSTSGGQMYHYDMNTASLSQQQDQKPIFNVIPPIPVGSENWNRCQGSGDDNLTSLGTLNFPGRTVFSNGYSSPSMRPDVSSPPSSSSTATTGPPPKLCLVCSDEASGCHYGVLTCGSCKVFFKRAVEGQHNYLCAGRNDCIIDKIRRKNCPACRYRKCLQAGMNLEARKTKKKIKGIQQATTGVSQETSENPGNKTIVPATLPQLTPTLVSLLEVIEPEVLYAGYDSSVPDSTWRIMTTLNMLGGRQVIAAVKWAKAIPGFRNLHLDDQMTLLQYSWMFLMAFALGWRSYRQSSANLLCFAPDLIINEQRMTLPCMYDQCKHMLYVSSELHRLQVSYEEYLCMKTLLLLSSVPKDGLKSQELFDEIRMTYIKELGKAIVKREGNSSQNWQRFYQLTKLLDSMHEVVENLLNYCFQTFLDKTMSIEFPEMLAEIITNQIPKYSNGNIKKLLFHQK

C[C@@H]1C[C@H]2[C@@H]3CCC4=CC(=O)C=C[C@]4(C)[C@@]3(F)[C@@H](O)C[C@]2(C)[C@@]1(O)C(=O)CO [dexamethasone]
anti-inflammatory and immunosuppressive potency versus cortisol [1]: approximately 30 times

CCC(CC)COC(=O)[C@H](C)N[P@](=O)(OC[C@H]1O[C@@](C#N)(c2ccc3c(N)ncnn23)[C@H](O)[C@@H]1O)Oc1ccccc1 [Remdesivir]
EC50, inhibition of MERS-CoV replication [2]: submicromolar
EC50, inhibition of SARS-CoV replication [3]: submicromolar
antiviral activity in SARS-CoV-2 in-vitro models [4]: antiviral activity
lung viral load [5]: reduced lung viral load
respiratory function [5]: improved respiratory function

CCN(CCO)CCCC(C)Nc1ccnc2cc(Cl)ccc12 (stereo not shown) [Hydroxychloroquine]
effect on coronavirus replication in in-vitro systems [6]: inhibitory effects
